Experimental data published in patent publication US10988459B2 (priority 2015, dated 2021).
Where two headings read alike, the source gives them in different places. Each block holds one molecule with its values, some of them ahead of it.

Biological target: human RIP1 kinase domain (2-375) (Homo sapiens (Human), UniProt Q13546)
Assay: biochemical
Assay type: biochemical
Settings: 50 uM ATP
Method: Example 794: RIP1 Kinase Inhibition Assays (Biochemical Assay)
The compounds of the present invention were tested for their capacity to inhibit RIP1K activity as described below.
The ability of the receptor interacting protein kinase (RIPK1) to catalyze the hydrolysis of adenosine-5′-triphosphate (ATP) is monitored using the Transcreener ADP (adenosine-5′-diphosphate) assay (BellBrook Labs). Purified human RIP1 kinase domain (2-375) (50 nM) derived from a baculovirus-infected insect cell expression system is incubated with test compounds for 2 hours in 50 mM Hepes buffer (pH 7.5) containing 30 mM MgCl2, 1 mM dithiothreitol, 50 uM ATP, 0.002% Brij-35, and 0.5% dimethyl sulfoxide (DMSO). […] The tracer bound to the antibody is displaced by the ADP generated during the RIP1K reaction, which causes a decrease in fluorescence polarization that is measured by laser excitation at 633 nm with a FP microplate reader M1000. Fractional activity was plotted against test article concentration. Using Genedata Screener software (Genedata; Basel, Switzerland), the data were fit to the tight-binding apparent inhibition constant (Ki^app) Morrison equation [Williams, J. W. and Morrison, J. F. (1979) The kinetics of reversible tight-binding inhibition. Methods Enzymol 63: 437-67]. The following equation was used to calculate fractional activity and Ki^app:
[formula] where [E]T and [I]T are the total concentrations of active enzyme and test article, respectively.
“Method” in the first column of each table refers to the synthetic method(s) used to prepare each compound as shown in the Examples above. In certain examples, chiral column retention times (min) are provided for certain stereoisomers.

[1] = tight-binding apparent inhibition constant, human RIP1 kinase domain (2-375) 50 nM, 2 hours, read-out: Ki
[2] = human RIP1 kinase domain (2-375), Transcreener ADP assay, 2 hours incubation, read-out: RIP1 Ki
[3] = human RIP1 kinase domain (2-375), 2 hours incubation, Transcreener ADP assay, read-out: RIP1 Ki
[4] = Table 1, apparent Ki (Morrison tight-binding fit), 50 nM RIP1 kinase domain, 2 hours incubation, read-out: RIP1 Ki
[5] = Table 5, apparent Ki (Morrison tight-binding fit), 50 nM RIP1 kinase domain, 2 hours incubation, read-out: Ki

Sequence of human RIP1 kinase domain (2-375) (Q13546 2-375): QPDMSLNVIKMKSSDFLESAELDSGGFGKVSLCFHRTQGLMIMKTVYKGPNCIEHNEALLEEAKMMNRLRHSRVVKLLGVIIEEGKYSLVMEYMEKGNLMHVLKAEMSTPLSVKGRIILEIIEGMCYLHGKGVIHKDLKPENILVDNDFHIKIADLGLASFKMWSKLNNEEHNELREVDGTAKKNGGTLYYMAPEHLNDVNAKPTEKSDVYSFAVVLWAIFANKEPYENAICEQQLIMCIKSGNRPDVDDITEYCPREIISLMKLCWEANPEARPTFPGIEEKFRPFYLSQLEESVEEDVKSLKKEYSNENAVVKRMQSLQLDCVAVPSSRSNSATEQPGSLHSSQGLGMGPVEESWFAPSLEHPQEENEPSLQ

Ki [1]: 3980 nM
Structure (SMILES): CN1C(=O)[C@H](NC(=O)c2ncn(Cc3ccccc3)n2)CCn2nc([C@H]3CC3(F)F)cc21 (racemic) [Example 674, 1-benzyl-N-[rac-(6R)-4-methyl-5-oxo-2-[rac-(1R)-2,2-difluorocyclopropyl]-7,8-dihydro-6H-pyrazolo[1,5-a] [1,3]diazepin-6-yl]-1,2,4-triazole-3-carboxamide]

Ki [2]: 28.6 nM
Structure (SMILES): CN1C(=O)[C@@H](NC(=O)c2ncn(Cc3ccc(F)cc3F)n2)CCn2nc([C@@H]3CC3(F)F)cc21 [Example 322, 1-(2,4-difluorobenzyl)-N—((S)-2-((S)-2,2-difluorocyclopropyl)-4-methyl-5-oxo-5,6,7,8-tetrahydro-4H-pyrazolo[1,5-a][1,3]diazepin-6-yl)-1H-1,2,4-triazole-3-carboxamide]

Ki [3]: 1700 nM
Structure (SMILES): CN1C(=O)[C@@H](NC(=O)c2nnc3cnc(C(F)(F)F)cn23)COc2ccccc21 [Example 200, (S)—N-(5-methyl-4-oxo-2,3,4,5-tetrahydrobenzo[b][1,4]oxazepin-3-yl)-6-(trifluoromethyl)-[1,2,4]triazolo[4,3-a]pyrazine-3-carboxamide]

Structure (SMILES): CN1C(=O)[C@@H](NC(=O)c2n[nH]c3c2CC2CC2C3)COc2ccccc21 (stereo partly drawn) [Example 56, N-((S)-5-methyl-4-oxo-2,3,4,5-tetrahydrobenzo[b][1,4]oxazepin-3-yl)-1,4,4a,5,5a,6-hexahydrocyclopropa[f]indazole-3-carboxamide]
Ki [4]: 922 nM

Ki [5]: 15 nM
Structure (SMILES): CC[C@@]1(C)OCc2cnc(C(=O)N[C@H]3COc4ccccc4N(C)C3=O)cc21 (single isomer, unassigned) [Example 765]

Ki [3]: 98.3 nM
Structure (SMILES): CN1C(=O)[C@@H](NC(=O)c2n[nH]c3c2CC(c2ccc(F)cc2)OC3)COc2ccccc21 (stereo partly drawn) [Example 205, 5-(4-fluorophenyl)-N—((S)-5-methyl-4-oxo-2,3,4,5-tetrahydrobenzo[b][1,4]oxazepin-3-yl)-1,4,5,7-tetrahydropyrano[3,4-c]pyrazole-3-carboxamide]

Structure (SMILES): CN1C(=O)[C@@H](NC(=O)c2cc3c(cn2)CCCC3)COc2ccccc21 [Example 23, (S)—N-(5-methyl-4-oxo-2,3,4,5-tetrahydrobenzo[b][1,4]oxazepin-3-yl)-5,6,7,8-tetrahydroisoquinoline-3-carboxamide]
Ki [4]: 2000 nM

Ki [2]: 395 nM
Structure (SMILES): Cc1cc2n(n1)CC[C@H](NC(=O)c1ncn(CC3(C)CC3)n1)C(=O)N2C [Example 289, (S)—N-(2,4-dimethyl-5-oxo-5,6,7,8-tetrahydro-4H-pyrazolo[1,5-a][1,3]diazepin-6-yl)-1-((1-methylcyclopropyl)methyl)-1H-1,2,4-triazole-3-carboxamide]

Ki [1]: 63 nM
Structure (SMILES): CN1C(=O)[C@@H](NC(=O)c2ncn(Cc3ccccc3)n2)CCn2nc(CCCN3CCOCC3)cc21 [Example 662]

Ki [1]: 19.4 nM
Structure (SMILES): CN1C(=O)[C@@H](NC(=O)c2nc3n(n2)[C@H](C(F)(F)F)CC3)COc2ccccc21 [Example 350, (5S)—N-[(3S)-5-methyl-4-oxo-2,3-dihydro-1,5-benzoxazepin-3-yl]-5-(trifluoromethyl)-6,7-dihydro-5H-pyrrolo[1,2-b][1,2,4]triazole-2-carboxamide]

Ki [5]: 95 nM
Structure (SMILES): CCn1ccc(-c2cc3n(n2)CCC(NC(=O)c2ncn(Cc4ccccc4)n2)C(=O)N3C)n1 (racemic) [Example 704, 1-benzyl-N-[2-(1-ethylpyrazol-3-yl)-4-methyl-5-oxo-7,8-dihydro-6H-pyrazolo[1,5-a][1,3]diazepin-6-yl]-1,2,4-triazole-3-carboxamide]

Ki [1]: 58 nM
Structure (SMILES): Cc1cc2n(n1)CC[C@H](NC(=O)c1nc3n(n1)CCC3c1ccccc1)C(=O)N2C (stereo partly drawn) [Example 574, 7-phenyl-N-[(6S)-2,4-dimethyl-5-oxo-7,8-dihydro-6H-pyrazolo[1,5-a][1,3]diazepin-6-yl]-6,7-dihydro-5H-pyrrolo[1,2-b][1,2,4]triazole-2-carboxamide]

Ki [2]: 74 nM
Structure (SMILES): CN1C(=O)[C@@H](NC(=O)c2cc3c(cn2)COC32CCOCC2)COc2ccccc21 [Example 299, (S)—N-(5-methyl-4-oxo-2,3,4,5-tetrahydrobenzo[b][1,4]oxazepin-3-yl)-2′,3′,5′,6′-tetrahydro-3H-spiro[furo[3,4-c]pyridine-1,4′-pyran]-6-carboxamide]
